According to PubChem BioAssay AID670 (University of Pittsburgh Molecular Library Screening Center, 2007):

Molecular target: M-phase inducer phosphatase 2 (Homo sapiens) (UniProt P30305)
Test: Cdc25B phosphatase blockers with beta-mercaptoethanol – biochemical, beta-mercaptoethanol present, catalytic domain, IC50, Cdc25B inhibitor project, late-stage follow-up (AID 670)
Conditions: recombinant Cdc25B phosphatase activity

Chain of M-phase inducer phosphatase 2 (Homo sapiens) (P30305 whole entry, looked up, the tested form may be a part): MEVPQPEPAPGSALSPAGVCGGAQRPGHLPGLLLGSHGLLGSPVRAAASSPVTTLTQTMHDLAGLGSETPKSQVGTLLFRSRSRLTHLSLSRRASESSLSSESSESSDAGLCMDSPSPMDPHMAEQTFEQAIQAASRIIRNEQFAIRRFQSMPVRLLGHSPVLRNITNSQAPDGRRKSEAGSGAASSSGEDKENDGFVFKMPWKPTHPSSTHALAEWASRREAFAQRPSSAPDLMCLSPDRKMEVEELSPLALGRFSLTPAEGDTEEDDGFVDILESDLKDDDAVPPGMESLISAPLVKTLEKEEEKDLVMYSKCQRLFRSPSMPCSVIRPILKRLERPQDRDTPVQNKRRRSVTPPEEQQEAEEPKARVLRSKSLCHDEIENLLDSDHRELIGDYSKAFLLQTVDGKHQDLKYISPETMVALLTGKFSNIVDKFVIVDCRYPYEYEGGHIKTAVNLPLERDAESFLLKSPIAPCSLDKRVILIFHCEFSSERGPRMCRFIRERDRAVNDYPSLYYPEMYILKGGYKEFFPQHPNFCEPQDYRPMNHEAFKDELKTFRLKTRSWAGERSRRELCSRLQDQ

IC50 [µM] | Compound
8.11 | COc1cccc2c1NC(C(=O)O)C1CC=CC21 (configuration not stated)
3.8 | O=C(OC1CCCCC1)c1ccc2c(c1)C1C=CCC1C(C(=O)O)N2 (configuration not stated)
